What is called IC50 is the concentration that inhibits the measured activity by half. As usually defined, the inhibition is the relative decrease from the control value, in per cent.

For one series, the target named is T1, caspase-8 (Homo sapiens, UniProt Q14790).
T1 construct: purchased Millipore (Billerica, MA)
In words: IC50 assay with recombinant caspase-8. It counts as biochemical. To be noted: for IC50: mean±s.d. Here is the method: Caspase-3 and 8 – The enzyme was pre-incubated with inhibitor in assay buffer (100 mM HEPES pH 7.4, 0.1% CHAPS, 10% Sucrose) for 10 min at 37 °C.
To determine the IC50 values of the compounds towards δ-secretase, cathepsin-S, cathepsin-L, caspase-3 and caspase-8, purified recombinant enzyme was incubated in appropriate assay buffers in the presence of increasing concentrations of inhibitors. The formation of fluorescent product was monitored in duplicate reactions and the data were fit to appropriate equations to calculate the IC50 values.

For a further series, the system named is Caco-2 monolayer. In words: Caco-2 monolayer permeability screen. Here is the method: Supplementary Table 3: Caco-2 permeability and BBB-PAMPA permeability
For CaCo-2 permeability assay, cells were incubated with 10 µM of these reagents in
buffers for 2 h, and the receiver side buffer is removed for analysis by LC/MS/MS. Efflux […]
(§1) LLOQ: Lower Limit of Quantification; Papp: apparent permeability.
On the technique in general: Caco-2 cells form a polarised layer with tight junctions and transporters.

The nature of series [1]: BBB-PAMPA permeability assay. It counts as in vitro ADME. The conditions noted are these: for Papp at 18 h: PAMPA, read-out: effective permeability Pe; for Papp at 18 h / effective permeability Pe: porcine brain lipid, 18 h. How it is done: Supplementary Table 3: Caco-2 permeability and BBB-PAMPA permeability […]
For CaCo-2 permeability assay, cells were incubated with 10 µM of these reagents in buffers for 2 h, and the receiver side buffer is removed for analysis by LC/MS/MS. Efflux […]
For BBB-PAMPA permeability assay, the filter membrane was coated with 4 µl of a 20 mg ml-1 porcine brain lipid in dodecane. 200 µl of the compound solution was added to the donor well. The acceptor well was filled with 200 µl of transport buffer. The acceptor filter plate was carefully placed on to the donor plate to create […]
a sandwich. […] Samples of the donor and acceptor wells were analyzed by LC/MS/MS and the effective permeability (Pe) was calculated.
as §1
In general terms: In PAMPA a lipid-coated filter parts donor from acceptor wells.

Another series deals with CYP2C9 (Homo sapiens, UniProt P11712). Kind of series: CYP inhibition screening in microsomes. To be noted: pH 7.4.
The target in another series is CYP2C19 (Homo sapiens, UniProt P33261). Kind of series: CYP inhibition screening in microsomes. The conditions noted are these: pH 7.4.
Series [2] addresses T2, δ-secretase in Pala cells (Homo sapiens, UniProt Q99538).
T2 sequence (Q99538 18-433): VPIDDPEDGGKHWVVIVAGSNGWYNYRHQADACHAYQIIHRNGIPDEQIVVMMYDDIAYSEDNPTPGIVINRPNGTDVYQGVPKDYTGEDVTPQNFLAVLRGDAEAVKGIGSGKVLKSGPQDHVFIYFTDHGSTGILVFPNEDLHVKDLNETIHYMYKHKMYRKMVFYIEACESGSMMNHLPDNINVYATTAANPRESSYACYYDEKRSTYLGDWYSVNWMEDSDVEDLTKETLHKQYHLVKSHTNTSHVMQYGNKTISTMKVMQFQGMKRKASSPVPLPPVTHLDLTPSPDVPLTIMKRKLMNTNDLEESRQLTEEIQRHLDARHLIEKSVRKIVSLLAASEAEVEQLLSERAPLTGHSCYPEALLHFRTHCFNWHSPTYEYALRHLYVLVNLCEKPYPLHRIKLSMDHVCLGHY
In words: δ-secretase inhibition in intact Pala cells.
Procedure: Cells were collected, washed twice with PBS and lysed in Lysis Buffer (20 mM citric acid, 60 mM disodium hydrogen orthophosphate, 1 mM EDTA, 0.1% CHAPS, pH 5.8). […] Data were analysed with GraFit version 5.0.11 software package.
δ-secretaseactivity assay.

Sequence of CYP2C19 (P33261 whole entry): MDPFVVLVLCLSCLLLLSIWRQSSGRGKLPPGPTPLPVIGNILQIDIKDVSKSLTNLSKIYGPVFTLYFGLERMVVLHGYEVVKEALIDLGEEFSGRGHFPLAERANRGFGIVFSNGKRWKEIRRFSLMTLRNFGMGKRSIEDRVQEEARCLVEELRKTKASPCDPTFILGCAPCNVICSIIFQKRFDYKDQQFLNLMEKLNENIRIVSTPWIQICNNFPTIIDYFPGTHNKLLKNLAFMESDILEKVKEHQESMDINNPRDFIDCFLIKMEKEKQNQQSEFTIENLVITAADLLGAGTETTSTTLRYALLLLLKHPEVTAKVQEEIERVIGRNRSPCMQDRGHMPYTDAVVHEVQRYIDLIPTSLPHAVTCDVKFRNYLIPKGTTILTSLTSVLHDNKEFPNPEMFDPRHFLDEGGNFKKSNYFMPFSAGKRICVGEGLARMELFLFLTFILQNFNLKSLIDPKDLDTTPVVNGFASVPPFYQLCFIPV
T1 sequence (Q14790 217-374 limits assumed, species assumed): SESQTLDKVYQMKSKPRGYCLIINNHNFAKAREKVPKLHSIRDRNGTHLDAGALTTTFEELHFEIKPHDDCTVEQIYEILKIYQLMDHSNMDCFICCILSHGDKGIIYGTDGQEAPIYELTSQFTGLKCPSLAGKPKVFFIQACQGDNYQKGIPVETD
T1 sequence (Q14790 385-479 limits assumed, species assumed): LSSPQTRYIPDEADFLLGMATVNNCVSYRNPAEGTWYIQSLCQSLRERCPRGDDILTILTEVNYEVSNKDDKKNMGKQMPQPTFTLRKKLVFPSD
Sequence of CYP2C9 (P11712 whole entry): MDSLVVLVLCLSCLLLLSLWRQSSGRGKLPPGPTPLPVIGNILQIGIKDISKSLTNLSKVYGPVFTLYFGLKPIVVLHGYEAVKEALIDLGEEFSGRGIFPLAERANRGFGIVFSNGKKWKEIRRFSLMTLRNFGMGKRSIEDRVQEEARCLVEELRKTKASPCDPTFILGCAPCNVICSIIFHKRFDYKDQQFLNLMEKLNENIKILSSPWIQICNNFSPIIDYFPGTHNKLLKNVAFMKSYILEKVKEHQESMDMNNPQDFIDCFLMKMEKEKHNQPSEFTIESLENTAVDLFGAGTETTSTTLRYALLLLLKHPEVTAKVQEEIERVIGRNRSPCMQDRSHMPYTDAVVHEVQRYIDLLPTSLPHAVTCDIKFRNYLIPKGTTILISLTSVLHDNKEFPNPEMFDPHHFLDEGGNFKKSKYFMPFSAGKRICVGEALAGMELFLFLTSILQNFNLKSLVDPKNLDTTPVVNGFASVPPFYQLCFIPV

On to `Nc1ccc(N2CCOCC2)c2nonc12` [compound 11, 7-(morpholin-4-yl)-2,1,3-benzoxadiazol-4-amine], for which the IC50 at caspase-8 amounted to 86.7 ± 10.3 µM. The “Caco-2 permeability in words” value in the series with Caco-2 monolayer was “highly permeable”. For the same compound, in series [1], the “BBB-PAMPA permeability / BBB penetration in words” value is listed as “detected at high-levels” and the Papp at 18 h was over 25 ×10⁻⁶ cm/s. On CYP2C9, the inhibition at 10 min, 3 µM was 4.3% and the inhibition at 10 min, 10 µM was 5.6%. In addition, at CYP2C19, the inhibition at 10 min, 3 µM was 4.4% and the inhibition at 10 min, 10 µM was found to be 6.8%.
Turning to `Cc1cccc(NCc2ccc(O)c3ncccc23)c1C` [compound 12], the results for the IC50 (on caspase-8; in series [2]) were over 200 µM and 0.43 ± 0.21 µM, respectively. Further, in series [1], the “effective permeability Pe” value is on record as “< LLOQ”. For the same compound, the values for the inhibition at 10 min, 3 µM on CYP2C9 and against CYP2C19 were 4.3% and 13.4%, respectively. Also, the inhibition at 10 min, 10 µM against CYP2C9 was -2.7%; against CYP2C19 it was 29.4%.
For the compound `COc1ccc(N2CCN(C(c3ccc(N(C)C)cc3)c3nnnn3C(C)(C)C)CC2)cc1` (stereo not drawn) [compound 31], the IC50 on caspase-8 is over 100 µM. Further, the “Caco-2 permeability in words” value in the series on Caco-2 monolayer is “highly permeable”. For the same compound, in series [1], the “BBB-PAMPA permeability / BBB penetration in words” value is reported as “barely penetrate the BBB” and the “effective permeability Pe” value is “< LLOQ”. On CYP2C9, the inhibition at 10 min, 3 µM stood at 47.8% and the inhibition at 10 min, 10 µM is 69.2%. Also, at CYP2C19, the inhibition at 10 min, 3 µM was 37.7% and the inhibition at 10 min, 10 µM worked out at 55.7%. This compound yielded a half-maximal inhibitory concentration (IC50) in series [2] of 0.67 ± 0.4 µM.
With `Cn1c(=O)[nH]c(=O)c2c1nc(S)n2CC(O)COc1ccc(Cl)cc1` (stereo not drawn) [compound 38], on caspase-8, the “selectivity for δ-secretase compared to caspase-8” value is recorded as “at least 80 fold” and the IC50 was 76.1 ± 8.12 µM. Further, in series [1], the “BBB-PAMPA permeability / BBB penetration in words” value is on record as “barely penetrate the BBB” and the Papp at 18 h stood at 0.007 ×10⁻⁶ cm/s. Moreover, at CYP2C9, the inhibition at 10 min, 3 µM worked out at 15.6% and the inhibition at 10 min, 10 µM came out at 17.1%. Further, on CYP2C19, the inhibition at 10 min, 3 µM is -12% and the inhibition at 10 min, 10 µM is 9.5%. The compound further came in with an IC50 in series [2] of 0.11 ± 0.05 µM.
